The record followed here is patent publication US11192891B2, “Diazaspiro ROCK inhibitors” (BRISTOL-MYERS SQUIBB COMPANY, priority 2017, dated 2021).

The experiment deals with ROCK2 (Homo sapiens, UniProt O75116). Nature of the experiment: ROCK kinase inhibition assay, FITC peptide substrate, LABCHIP 3000 readout. The following applies: 5 μM ATP, 1.5 μM peptide substrate. Format: biochemical. How it is done: Compounds were dissolved in DMSO so that the final concentration of DMSO was <2%, and the reaction was initiated with Rho kinase variants. After incubation, the reaction was terminated by the addition of EDTA and the phosphorylated and non-phosphorylated peptides separated using a LABCHIP® 3000 Reader (Caliper Life Sciences). […] Compounds were tested in dose-response format, and the inhibition of kinase activity was calculated at each concentration of compound.
Sequence of ROCK2 (O75116 whole entry, species assumed): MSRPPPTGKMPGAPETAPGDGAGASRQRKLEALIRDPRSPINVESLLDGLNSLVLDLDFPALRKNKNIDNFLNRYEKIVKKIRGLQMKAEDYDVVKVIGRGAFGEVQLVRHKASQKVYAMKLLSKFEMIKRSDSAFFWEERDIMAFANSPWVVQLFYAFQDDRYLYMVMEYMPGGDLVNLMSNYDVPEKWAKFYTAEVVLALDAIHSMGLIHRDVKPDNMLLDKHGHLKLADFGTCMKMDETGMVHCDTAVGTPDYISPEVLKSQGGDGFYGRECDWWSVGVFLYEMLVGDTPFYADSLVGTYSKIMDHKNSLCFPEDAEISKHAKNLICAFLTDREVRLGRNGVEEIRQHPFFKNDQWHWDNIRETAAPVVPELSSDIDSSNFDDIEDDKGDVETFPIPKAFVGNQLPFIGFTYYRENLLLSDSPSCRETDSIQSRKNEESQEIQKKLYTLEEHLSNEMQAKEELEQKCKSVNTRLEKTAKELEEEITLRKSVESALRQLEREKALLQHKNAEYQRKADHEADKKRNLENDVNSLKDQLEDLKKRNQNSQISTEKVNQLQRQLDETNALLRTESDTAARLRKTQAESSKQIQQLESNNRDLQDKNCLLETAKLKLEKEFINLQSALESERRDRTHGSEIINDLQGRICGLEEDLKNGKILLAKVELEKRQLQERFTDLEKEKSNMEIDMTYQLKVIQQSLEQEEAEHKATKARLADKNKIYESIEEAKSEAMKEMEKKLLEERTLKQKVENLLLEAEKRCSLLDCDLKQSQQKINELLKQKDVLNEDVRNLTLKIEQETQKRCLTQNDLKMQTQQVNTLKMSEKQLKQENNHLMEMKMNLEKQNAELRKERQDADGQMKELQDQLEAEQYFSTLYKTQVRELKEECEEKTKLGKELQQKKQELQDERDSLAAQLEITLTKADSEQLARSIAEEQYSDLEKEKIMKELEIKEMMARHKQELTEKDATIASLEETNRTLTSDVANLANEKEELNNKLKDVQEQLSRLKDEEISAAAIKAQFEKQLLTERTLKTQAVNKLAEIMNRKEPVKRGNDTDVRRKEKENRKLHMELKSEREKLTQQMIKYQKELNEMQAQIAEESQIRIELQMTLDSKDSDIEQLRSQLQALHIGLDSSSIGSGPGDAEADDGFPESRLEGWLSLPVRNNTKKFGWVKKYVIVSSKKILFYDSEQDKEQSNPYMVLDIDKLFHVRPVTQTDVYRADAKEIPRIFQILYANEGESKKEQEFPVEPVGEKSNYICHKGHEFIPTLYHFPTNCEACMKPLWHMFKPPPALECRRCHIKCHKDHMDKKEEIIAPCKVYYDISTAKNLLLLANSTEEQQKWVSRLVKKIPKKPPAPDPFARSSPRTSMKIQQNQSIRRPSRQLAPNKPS

As a reminder, the IC50 is the concentration that gives 50% inhibition. The low end stands for greater potency in that assay, the high end for weaker potency in that assay. Compound `COc1cc(N2CCC3(CCN(C(=O)c4cc(Cl)no4)CC3)C2=O)ccc1-c1cn[nH]c1` [Example 109, 8-(3-chloro-1,2-oxazole-5-carbonyl)-2-[3-methoxy-4-(1H-pyrazol-4-yl)phenyl]-2,8-diazaspiro[4.5]decan-1-one] registered an IC50 of 362 nM.
In the case of `COc1cc(N2CCC3(CCN(C(=O)c4ccc5nc(-c6ccncc6)[nH]c5c4)CC3)C2=O)ccc1-c1cn[nH]c1` [Example 182, 2-[3-methoxy-4-(1H-pyrazol-4-yl)phenyl]-8-[2-(pyridin-4-yl)-1H-1,3-benzodiazole-6-carbonyl]-2,8-diazaspiro[4.5]decan-1-one] it was 16 nM; in that of `COc1cc(N2CCC3(CCN(C(=O)c4cc5cnccc5nc4C)CC3)C2=O)ccc1-c1cn[nH]c1` [Example 165, 2-[3-methoxy-4-(1H-pyrazol-4-yl)phenyl]-8-(2-methyl-1,6-naphthyridine-3-carbonyl)-2,8-diazaspiro[4.5]decan-1-one], 896 nM.
Take `COc1ccccc1C(=O)N1CCC2(CC1)CCN(c1ccc(-c3cn[nH]c3)cc1)C2=O` [Example 3, 8-(2-methoxybenzoyl)-2-[4-(1H-pyrazol-4-yl)phenyl]-2,8-diazaspiro[4.5]decan-1-one]: the 50% inhibitory concentration (IC50) amounted to 160 nM.
In the case of `COc1c(F)cccc1C(=O)N1CCC2(CC1)CCN(c1ccc(-c3cn[nH]c3)cc1)C2=O` [Example 8, 8-(3-Fluoro-2-methoxybenzoyl)-2-[4-(1H-pyrazol-4-yl)phenyl]-2,8-diazaspiro[4.5]decan-1-one] it was 112 nM.
In the case of `COc1cc(N2CCC3(CCN(C(=O)c4cnc(C)nc4)CC3)C2=O)ccc1-c1cn[nH]c1` [Example 121, 2-[3-methoxy-4-(1H-pyrazol-4-yl)phenyl]-8-(2-methylpyrimidine-5-carbonyl)-2,8-diazaspiro[4.5]decan-1-one] it was 585 nM; in that of `COc1cc(N2CCC3(CCN(C(=O)c4cc(C)[nH]n4)CC3)C2=O)ccc1-c1cn[nH]c1` [Example 187, 2-[3-methoxy-4-(1H-pyrazol-4-yl)phenyl]-8-(5-methyl-1H-pyrazole-3-carbonyl)-2,8-diazaspiro[4.5]decan-1-one], 27 nM; in that of `COc1cc(N2CCC3(CCN(C(=O)c4ccc(-c5ccncc5)cc4)CC3)C2=O)ccc1-c1cn[nH]c1` [Example 171, 2-[3-methoxy-4-(1H-pyrazol-4-yl)phenyl]-8-[4-(pyridin-4-yl)benzoyl]-2,8-diazaspiro[4.5]decan-1-one], 5.5 nM.
`COc1cc(N2CCC3(CCN(C(=O)c4ccoc4)CC3)C2=O)ccc1-c1cn[nH]c1` [Example 65, 8-(furan-3-carbonyl)-2-[3-methoxy-4-(1H-pyrazol-4-yl)phenyl]-2,8-diazaspiro[4.5]decan-1-one] registered an IC50 of 752 nM.
In turn, `COc1cc(N2CCC3(CCN(C(=O)c4ccc(N5CCN(Cc6cccnc6)CC5)cc4)CC3)C2=O)ccc1-c1cn[nH]c1` [Example 243, 2-[3-methoxy-4-(1H-pyrazol-4-yl)phenyl]-8-(4-{4-[(pyridin-3-yl)methyl]piperazin-1-yl}benzoyl)-2,8-diazaspiro[4.5]decan-1-one] yielded an IC50 of 1 nM.
Under `CN1CCN(c2ccc(C(=O)N3CCC4(CC3)CCN(c3ccc(-c5cn[nH]c5)cc3)C4=O)cc2)CC1` [Example 31, 8-[4-(4-methylpiperazin-1-yl)benzoyl]-2-[4-(1H-pyrazol-4-yl)phenyl]-2,8-diazaspiro[4.5]decan-1-one] stands 0.7 nM.
Under `COc1cc(N2CCC3(CCN(C(=O)c4ccc(N5CCOC5=O)cc4)CC3)C2=O)ccc1-c1cn[nH]c1` [Example 141, 2-[3-methoxy-4-(1H-pyrazol-4-yl)phenyl]-8-[4-(2-oxo-1,3-oxazolidin-3-yl)benzoyl]-2,8-diazaspiro[4.5]decan-1-one] stands 3 nM; under `COc1cc(N2CCC3(CCN(C(=O)c4ccc(-n5ccccc5=O)cc4)CC3)C2=O)ccc1-c1cn[nH]c1` [Example 117, 2-[3-methoxy-4-(1H-pyrazol-4-yl)phenyl]-8-[4-(2-oxo-1,2-dihydropyridin-1-yl)benzoyl]-2,8-diazaspiro[4.5]decan-1-one], 7 nM.
In turn, `COc1ccc2c(OC)ccc(C(=O)N3CCC4(CC3)CCN(c3ccc(-c5cn[nH]c5)c(OC)c3)C4=O)c2c1` [Example 199, 8-(4,7-dimethoxynaphthalene-1-carbonyl)-2-[3-methoxy-4-(1H-pyrazol-4-yl)phenyl]-2,8-diazaspiro[4.5]decan-1-one] came in with an IC50 of 186 nM.
Under `COc1cc(N2CCC3(CCN(C(=O)c4ccc(N5CCN(Cc6ccc(-n7ccnc7)cc6)CC5)cc4)CC3)C2=O)ccc1-c1cn[nH]c1` [Example 220, 8-[4-(4-{[4-(1H-imidazol-1-yl)phenyl]methyl}piperazin-1-yl)benzoyl]-2-[3-methoxy-4-(1H-pyrazol-4-yl)phenyl]-2,8-diazaspiro[4.5]decan-1-one] stands 0.3 nM.
Under `COc1cc(N2CCC3(CCN(C(=O)c4ccc(-c5cc[nH]n5)cc4)CC3)C2=O)ccc1-c1cn[nH]c1` [Example 53, 2-[3-methoxy-4-(1H-pyrazol-4-yl)phenyl]-8-[4-(1H-pyrazol-3-yl)benzoyl]-2,8-diazaspiro[4.5]decan-1-one] stands 16.5 nM; under `COc1cc(N2CCC3(CCN(C(=O)c4ccc(-n5ccncc5=O)cc4F)CC3)C2=O)ccc1-c1cn[nH]c1` [Example 136, 8-[2-fluoro-4-(2-oxo-1,2-dihydropyrazin-1-yl)benzoyl]-2-[3-methoxy-4-(1H-pyrazol-4-yl)phenyl]-2,8-diazaspiro[4.5]decan-1-one], 4.2 nM; under `COc1cc(N2CCC3(CCN(C(=O)c4ccc(N5CCNCC5)cc4)CC3)C2=O)ccc1-c1cn[nH]c1` [Example 130, 2-[3-methoxy-4-(1H-pyrazol-4-yl)phenyl]-8-[4-(piperazin-1-yl)benzoyl]-2,8-diazaspiro[4.5]decan-1-one], 0.4 nM.
Under `COc1cc(N2CCC3(CCN(C(=O)c4ccc(Oc5ccc(Cl)cc5)cc4)CC3)C2=O)ccc1-c1cn[nH]c1` [Example 112, 8-[4-(4-chlorophenoxy)benzoyl]-2-[3-methoxy-4-(1H-pyrazol-4-yl)phenyl]-2,8-diazaspiro[4.5]decan-1-one] stands 39 nM; under `COc1cc(N2CCC3(CCN(C(=O)c4ccc(N5CCN(CC(C)(C)C)CC5)cc4)CC3)C2=O)ccc1-c1cn[nH]c1` [Example 241, 8-{4-[4-(2,2-dimethylpropyl)piperazin-1-yl]benzoyl}-2-[3-methoxy-4-(1H-pyrazol-4-yl)phenyl]-2,8-diazaspiro[4.5]decan-1-one], 0.4 nM.
In turn, `COc1cc(N2CCC3(CCN(C(=O)c4csnn4)CC3)C2=O)ccc1-c1cn[nH]c1` [Example 77, 2-[3-methoxy-4-(1H-pyrazol-4-yl)phenyl]-8-(1,2,3-thiadiazole-4-carbonyl)-2,8-diazaspiro[4.5]decan-1-one] displayed an IC50 of 453 nM.
Consider `COc1cc(N2CCC3(CCN(C(=O)c4ccc5c(c4)nnn5C)CC3)C2=O)ccc1-c1cn[nH]c1` [Example 196, 2-[3-methoxy-4-(1H-pyrazol-4-yl)phenyl]-8-(1-methyl-1H-1,2,3-benzotriazole-5-carbonyl)-2,8-diazaspiro[4.5]decan-1-one], for which the IC50 is 9.1 nM.
